Measurements reported in patent US7323469B2, “7H-pyrrolo[2,3-d]pyrimidine derivatives” (Novartis AG, priority 2001, dated 2008).

Compound: CN(C)Cc1ccc(-c2cc3c(Nc4cccc(Cl)c4)ncnc3[nH]2)cc1.Cl
- melting point: 280 to 283 °C

Compound: CN1CCN(Cc2ccc(-c3cc4c(Nc5cccc(Cl)c5)ncnc4[nH]3)cc2)CC1.Cl.Cl
- melting point: 227 to 229 °C

Compound: Cl.Clc1cccc(Nc2ncnc3[nH]c(-c4ccc(CN5CCOCC5)cc4)cc23)c1
- melting point: 278 to 280 °C

Compound: CN(C)Cc1ccc(-c2cc3c(Nc4ccc(F)c(Cl)c4)ncnc3[nH]2)cc1 [Example 1, (3-Chloro-4-fluoro-phenyl)-[6-(4-dimethylaminomethyl-phenyl)-7H-pyrrolo[2,3-d]pyrimidin-4-yl]-amine]
- melting point: 274 to 276 °C

Compound: CC1CN(Cc2ccc(-c3cc4c(Nc5ccc(F)c(Cl)c5)ncnc4[nH]3)cc2)CC(C)N1 (stereo not drawn) [Example 8, (3-Chloro-4-fluoro-phenyl)-{6-[4-(3,5-dimethyl-piperazin-1-ylmethyl)-phenyl]-7H-pyrrolo[2,3-d]pyrimidin-4-yl}-amine]
- melting point: 261 to 263 °C

Compound: Fc1ccc(Nc2ncnc3[nH]c(-c4ccc(CNCCN5CCOCC5)cc4)cc23)cc1Cl [Example 8b, (3-Chloro-4-fluoro-phenyl)-(6-{4-[(2-morpholin-4-yl-ethyl-amino)-methyl]-phenyl}-7H-pyrrolo[2,3-d]pyrimidin-4-yl)-amine]
- melting point: 224 to 226 °C

Compound: CCN(CC)CCNCc1ccc(-c2cc3c(Nc4ccc(F)c(Cl)c4)ncnc3[nH]2)cc1 [Example 8c, N-{4-[4-(3-Chloro-4-fluoro-phenylamino)-7H-pyrrolo[2,3-d]pyrimidin-6-yl]-benzyl}-N′,N′-diethyl-ethane-1,2-diamine]
- melting point: 229 to 231 °C

Compound: CC(C)NCc1ccc(-c2cc3c(Nc4ccc(F)c(Cl)c4)ncnc3[nH]2)cc1 [Example 8d, (3-Chloro-4-fluoro-phenyl)-{6-[4-(iso-propylamino-methyl)-phenyl]-7H-pyrrolo[2,3-d]pyrimidin-4-yl}-amine]
- melting point: 282 to 284 °C

Compound: C[C@@H](Nc1ncnc2[nH]c(-c3ccc(CN4CCN(C)CC4)cc3)cc12)c1ccccc1 [Example 9, {6-[4-(4-Methyl-piperazin-1-ylmethyl)-phenyl]-7H-pyrrolo[2,3-d]pyrimidin-4-yl}-((R)-1-phenyl-ethyl)-amine]
- melting point: 248 to 250 °C

Compound: CC1CN(Cc2ccc(-c3cc4c(N[C@H](C)c5ccccc5)ncnc4[nH]3)cc2)CC(C)N1 (stereo partly drawn) [Example 16, {6-[4-(3,5-Dimethyl-piperazin-1-ylmethyl)-phenyl]-7H-pyrrolo[2,3-d]pyrimidin-4-yl}-((R)-1-phenyl-ethyl)-amine]
- melting point: 208 to 210 °C

Compound: C[C@@H](Nc1ncnc2[nH]c(-c3ccc(CNC4CCOCC4)cc3)cc12)c1ccccc1 [Example 16b, ((R)-1-Phenyl-ethyl)-(6-{4-[(tetrahydro-pyran-4-ylamino)-methyl]-phenyl}-7H-pyrrolo[2,3-d]pyrimidin-4-yl)-amine]
- melting point: 253 to 255 °C

Compound: CCN(CC)CCNCc1ccc(-c2cc3c(N[C@H](C)c4ccccc4)ncnc3[nH]2)cc1 [Example 16c, N,N-Diethyl-N′-{4-[4-((R)-1-phenyl-ethyl-amino)-7H-pyrrolo[2,3-d]pyrimidin-6-yl]-benzyl}-ethane-1,2-diamine]
- melting point: 145 to 150 °C

Compound: C[C@@H](Nc1ncnc2[nH]c(-c3ccc(CNC(C)(C)C)cc3)cc12)c1ccccc1 [Example 16d, {6-[4-(tert-Butylamino-methyl)-phenyl]-7H-pyrrolo[2,3-d]pyrimidin-4-yl}-((R)-1-phenyl-ethyl)-amine]
- melting point: > 300 °C

Compound: CC(C)NCc1ccc(-c2cc3c(N[C@H](C)c4ccccc4)ncnc3[nH]2)cc1 [Example 16e, {6-[4-(isopropylamino-methyl)-phenyl]-7H-pyrrolo[2,3-d]pyrimidin-4-yl}-((R)-1-phenyl-ethyl)-amine]
- melting point: 266 to 268 °C

Compound: CCNCc1ccc(-c2cc3c(N[C@H](C)c4ccccc4)ncnc3[nH]2)cc1 [Example 16f, [6-(4-Ethylaminomethyl-phenyl)-7H-pyrrolo[2,3-d]pyrimidin-4-yl]-((R)-1-phenyl-ethyl)-amine]
- melting point: 236 to 238 °C

Compound: CN(C)Cc1ccc(-c2cc3c(Nc4ccc(OCc5ccccc5)cc4)ncnc3[nH]2)cc1 [Example 17, (4-Benzyloxy-phenyl)-[6-(4-dimethylaminomethyl-phenyl)-7H-pyrrolo[2,3-d]pyrimidin-4-yl]-amine]
- melting point: 272 to 274 °C

Compound: c1ccc(COc2ccc(Nc3ncnc4[nH]c(-c5ccc(CN6CCCCC6)cc5)cc34)cc2)cc1 [Example 19, (4-Benzyloxy-phenyl)-[6-(4-piperidin-1-ylmethyl-phenyl)-7H-pyrrolo[2,3-d]pyrimidin-4-yl]-amine]
- melting point: 256 to 258 °C

Compound: c1ccc(COc2ccc(Nc3ncnc4[nH]c(-c5ccc(CN6CCOCC6)cc5)cc34)cc2)cc1 [Example 20, (4-Benzyloxy-phenyl)-[6-(4-morpholin-4-ylmethyl-phenyl)-7H-pyrrolo[2,3-d]pyrimidin-4-yl]-amine]
- melting point: 272 to 274 °C

Compound: CCN(CC)Cc1ccc(-c2cc3c(Nc4ccc(OCc5ccccc5)cc4)ncnc3[nH]2)cc1 [Example 21, (4-Benzyloxy-phenyl)-[6-(4-diethylaminomethyl-phenyl)-7H-pyrrolo[2,3-d]pyrimidin-4-yl]-amine]
- melting point: 271 to 273 °C

Compound: CCN1CCN(Cc2ccc(-c3cc4c(Nc5ccc(OCc6ccccc6)cc5)ncnc4[nH]3)cc2)CC1 [Example 22, (4-Benzyloxy-phenyl)-{6-[4-(4-ethyl-piperazin-1-ylmethyl)-phenyl]-7H-pyrrolo[2,3-d]pyrimidin-4-yl}-amine]
- melting point: 256 to 258 °C

Compound: c1ccc(COc2ccc(Nc3ncnc4[nH]c(-c5ccc(CN6CCCC6)cc5)cc34)cc2)cc1 [Example 23, (4-Benzyloxy-phenyl)-[6-(4-pyrrolidin-1-ylmethyl-phenyl)-7H-pyrrolo[2,3-d]pyrimidin-4-yl]-amine]
- melting point: 265 to 267 °C

Compound: CC1CN(Cc2ccc(-c3cc4c(Nc5ccc(OCc6ccccc6)cc5)ncnc4[nH]3)cc2)CC(C)N1 (stereo not drawn) [Example 24, (4-Benzyloxy-phenyl)-{6-[4-(3,5-dimethyl-piperazin-1-ylmethyl)-phenyl]-7H-pyrrolo[2,3-d]pyrimidin-4-yl}-amine]
- melting point: 269 to 271 °C

Compound: C[C@@H](Nc1ncnc2[nH]c(-c3cccc(CN(C)C)c3)cc12)c1ccccc1 [Example 25, [6-(3-Dimethylaminomethyl-phenyl)-7H-pyrrolo[2,3-d]pyrimidin-4-yl]-((R)-1-phenyl-ethyl)-amine]
- melting point: 108 to 110 °C

Compound: CCN1CCN(Cc2cccc(-c3cc4c(N[C@H](C)c5ccccc5)ncnc4[nH]3)c2)CC1 [Example 27, {6-[3-(4-Ethyl-piperazin-1-ylmethyl)-phenyl]-7H-pyrrolo[2,3-d]pyrimidin-4-yl}-((R)-1-phenyl-ethyl)-amine]
- melting point: 128 to 130 °C

Compound: C[C@@H](Nc1ncnc2[nH]c(-c3cccc(CN4CCCC4)c3)cc12)c1ccccc1 [Example 28, ((R)-1-Phenyl-ethyl)-[6-(3-pyrrolidin-1-ylmethyl-phenyl)-7H-pyrrolo[2,3-d]pyrimidin-4-yl]-amine]
- melting point: 90 to 92 °C

Compound: C[C@@H](Nc1ncnc2[nH]c(-c3cccc(CN4CCN(C)CC4)c3)cc12)c1ccccc1 [Example 29, {6-[3-(4-Methyl-piperazin-1-ylmethyl)-phenyl]-7H-pyrrolo[2,3-d]pyrimidin-4-yl}-((R)-1-phenyl-ethyl)-amine]
- melting point: 112 to 115 °C

Compound: C[C@@H](Nc1ncnc2[nH]c(-c3cccc(CN4CCCCC4)c3)cc12)c1ccccc1 [Example 30, ((R)-1-Phenyl-ethyl)-[6-(3-piperidin-1-ylmethyl-phenyl)-7H-pyrrolo[2,3-d]pyrimidin-4-yl]-amine]
- melting point: 108 to 110 °C

Compound: C[C@@H](Nc1ncnc2[nH]c(-c3cccc(CN4CCOCC4)c3)cc12)c1ccccc1 [Example 31, [6-(3-Morpholin-4-ylmethyl-phenyl)-7H-pyrrolo[2,3-d]pyrimidin-4-yl]-((R)-1-phenyl-ethyl)-amine]
- melting point: 242 to 243 °C

Compound: CC1CN(Cc2cccc(-c3cc4c(N[C@H](C)c5ccccc5)ncnc4[nH]3)c2)CC(C)N1 (stereo partly drawn) [Example 32, {6-[3-(3,5-Dimethyl-piperazin-1-ylmethyl)-phenyl]-7H-pyrrolo[2,3-d]pyrimidin-4-yl}-((R)-1-phenyl-ethyl)-amine]
- melting point: 128 to 130 °C

Compound: CN(C)Cc1cccc(-c2cc3c(Nc4ccc(F)c(Cl)c4)ncnc3[nH]2)c1 [Example 33, (3-Chloro-4-fluoro-phenyl)-[6-(3-dimethylaminomethyl-phenyl)-7H-pyrrolo[2,3-d]pyrimidin-4-yl]-amine]
- melting point: 218 to 220 °C

Compound: CCN1CCN(Cc2cccc(-c3cc4c(Nc5ccc(F)c(Cl)c5)ncnc4[nH]3)c2)CC1 [Example 35, (3-Chloro-4-fluoro-phenyl)-{6-[3-(4-ethyl-piperazin-1-ylmethyl)-phenyl]-7H-pyrrolo[2,3-d]pyrimidin-4-yl}-amine]
- melting point: 238 to 240 °C

Compound: Fc1ccc(Nc2ncnc3[nH]c(-c4cccc(CN5CCCC5)c4)cc23)cc1Cl [Example 36, (3-Chloro-4-fluoro-phenyl)-[6-(3-pyrrolidin-1-ylmethyl-phenyl)-7H-pyrrolo[2,3-d]pyrimidin-4-yl]-amine]
- melting point: 238 to 240 °C

Compound: CN1CCN(Cc2cccc(-c3cc4c(Nc5ccc(F)c(Cl)c5)ncnc4[nH]3)c2)CC1 [Example 37, (3-Chloro-4-fluoro-phenyl)-{6-[3-(4-methyl-piperazin-1-ylmethyl)-phenyl]-7H-pyrrolo[2,3-d]pyrimidin-4-yl}-amine]
- melting point: 221 to 223 °C

Compound: Fc1ccc(Nc2ncnc3[nH]c(-c4cccc(CN5CCCCC5)c4)cc23)cc1Cl [Example 38, (3-Chloro-4-fluoro-phenyl)-[6-(3-piperidin-1-ylmethyl-phenyl)-7H-pyrrolo[2,3-d]pyrimidin-4-yl]-amine]
- melting point: 233 to 235 °C

Compound: Fc1ccc(Nc2ncnc3[nH]c(-c4cccc(CN5CCOCC5)c4)cc23)cc1Cl [Example 39, (3-Chloro-4-fluoro-phenyl)-[6-(3-morpholin-4-ylmethyl-phenyl)-7H-pyrrolo[2,3-d]pyrimidin-4-yl]-amine]
- melting point: 290 to 292 °C

Compound: C[C@@H](Nc1ncnc2[nH]c(-c3ccc(CNC(=O)CN4CCCCC4)cc3)cc12)c1ccccc1 [Example 40, N-{4-[4-((R)-1-Phenyl-ethylamino)-7H-pyrrolo[2,3-d]pyrimidin-6-yl]-benzyl}-2-piperidin-1-yl-acetamide]
- melting point: 194 to 196 °C
